Results: patent US8318940B2, “Naphthyridin-2 (1 H)-one compounds useful as antibacterials” (Glaxo Group Limited, priority 2009, dated 2012)

Each molecule was assayed on Mycobacterium tuberculosis H37Rv (assay: Mycobacterium tuberculosis H37Rv inhibition assay (MIC, resazurin)). Settings: ATCC 25618 / H37Rv, H37Rv strain (ATCC25618), Middlebrook 7H9, 37° C. six days, resazurin fluorescence after 48 hours.
Assay type: cell-based
O=c1ccc2ncc(F)cc2n1CCN1CCC(NCc2cnc(CO)c(Cl)c2)CC1 [Example 1, 1-{2-[4-({[5-chloro-6-(hydroxymethyl)-3-pyridinyl]methyl}amino)-1-piperidinyl]ethyl}-7-fluoro-1,5-naphthyridin-2(1H)-one] was tested, and the MIC was ≤ 0.3 µg/mL.
Cl.O=c1ccc2ncc(F)cc2n1CCN1CCC(NCc2cnc(CO)c(Cl)c2)CC1 [Example 2, 1-{2-[4-({[5-chloro-6-(hydroxymethyl)-3-pyridinyl]methyl}amino)-1-piperidinyl]ethyl}-7-fluoro-1,5-naphthyridin-2(1H)-one hydrochloride] was tested, and the MIC was ≤ 0.3 µg/mL.
In the case of O=c1ccc2ncc(F)cc2n1CCN1CC[C@H](NCc2cnc(CO)c(Cl)c2)[C@H](O)C1 [Example 3, 1-{2-[(3R,4S)-4-({[5-chloro-6-(hydroxymethyl)-3-pyridinyl]methyl}amino)-3-hydroxy-1-piperidinyl]ethyl}-7-fluoro-1,5-naphthyridin-2(1H)-one], the MIC is reported as ≤ 0.3 µg/mL.
With Cl.O=c1ccc2ncc(F)cc2n1CCN1CC[C@H](NCc2cnc(CO)c(Cl)c2)[C@H](O)C1 [Example 4, 1-{2-[(3R,4S)-4-({[5-chloro-6-(hydroxymethyl)-3-pyridinyl]methyl}amino)-3-hydroxy-1-piperidinyl]ethyl}-7-fluoro-1,5-naphthyridin-2(1H)-one hydrochloride] the MIC was ≤ 0.3 µg/mL.
In the case of COc1cnc2ccc(=O)n(CCN3CCC(NCc4cnc(CO)c(Cl)c4)CC3)c2c1 [Example 5, 1-{2-[4-({[5-chloro-6-(hydroxymethyl)-3-pyridinyl]methyl}amino)-1-piperidinyl]ethyl}-7-(methyloxy)-1,5-naphthyridin-2(1H)-one], the MIC is reported as ≤ 0.3 µg/mL.
With O=c1ccc2ncc(F)cc2n1CCN1CCC(NCc2cnc(CO)c(Br)c2)CC1 [Example 6, 1-{2-[4-({[5-bromo-6-(hydroxymethyl)-3-pyridinyl]methyl}amino)-1-piperidinyl]ethyl}-7-fluoro-1,5-naphthyridin-2(1H)-one] the MIC was ≤ 0.3 µg/mL.
